Assay results as given in ChEMBL document CHEMBL3603749, “Ligand efficient tetrahydro-pyrazolopyridines as inhibitors of ERK2 kinase” (Bioorg Med Chem Lett, 2015).

Test system: Caco-2
Test: Permeability of the compound from apical to basolateral side in human Caco2 cells
Type: ADME, cell-based

permeability	Compound
permeable	O=c1cc(N2CCc3[nH]nc(-c4ccncc4)c3C2)cc[nH]1
impermeable	CS(=O)(=O)c1cccc(Cn2ccc(N3CCc4[nH]nc(-c5ccncc5)c4C3)cc2=O)c1
